# Measured values reported in patent US20210213135A1 (Purdue Research Foundation, priority 2018, published 2021).
# Bridges are numbered along the chain shown (N, C = ends). Primed or numbered codes have the meaning given here. Where no end group is shown, it is not given here. [ ]: non-standard residue; d: D form. mp4″ = 4 mini PEG linker (mini-PEG spacer); PEG10′ = polyethylene glycol 10 linker; minipeg = minipeg spacer; Dap = NC[C@H](N)C(=O)O
# Key:
# [1] = system: Swiss Webster fracture-bearing mice (fracture callus); assay: micro CT of the fracture callus in the femur fracture model; assay type: in vivo
# [2] = system: Swiss Webster fracture-bearing mice (healed femur); assay: postmortem 4 point bend of the healed femur; assay type: in vivo
# Source text: All in vivo data included herein are from Swiss Webster mice. All mice received an osteotomy on their right femur and received subcutaneous drug administration daily for either 2,3 or 4 weeks, or 17 days, as indicated, for each compound. 1× concentration represents 1 nmol/day, 10× represents 10 nmol/day, 100× represents 100 nmol/day most studies have an n of 5.
# The term “Peak Load” means a postmortem 4 point bend of the healed femur. Peak load represents the maximum force the healed femur withstood before it refractured.
# The targeted conjugates were synthesized using standard Fmoc solid-phase peptide synthesis, as described above. To ensure the conjugates' activity, mouse pre-osteoblast ([…]) cells were treated with the targeted and untargeted compounds for three days at concentrations from 1 pM to 100 nM. After three days of treatment, the cells were harvested, and the RNA was purified from the cells. Expression levels of ALP, RUNx2 (transcription factor for osteoblast differentiation), osterix (OSX), osteopontin (OPN), collagen 1A (Col-1A), OPG, RANKL, sclerostin gene (SOST), and OC were quantified via quantitative reverse transcription polymerase chain reaction (RT-qPCR). Once the biological activity of the conjugates was confirmed, they were tested in vivo in a fracture model. Aseptic surgical techniques were used to place a 23-gage needle as in intramedullary nail in the femur of anesthetized, 12-week-old Swiss Webster mice for internal fixation before fracture. Femur fractures were induced using a drop weight fracture device from RISystem. The mice received buprenorphine for three days post fracture. The mice were dosed subcutaneously each day for three weeks or 17 days. Fracture healing was assessed using microCT (Scanco Medical Ag). Morphometric parameters were quantified in the 100 widest slices of the fracture callus. Trabecular thickness (Tb.Th.), trabecular spacing (Tb.Sp.), total volume (TV), and volume of calcified callus (BV) were calculated. Fractured femurs were tested for strength in a four-point bend to failure using an Electro Force TestBench (TA Instruments). Lower supports were 10 mm apart on the anterior face of the femur in contact with the proximal and distal diaphysis. Upper supports were 4 mm apart and spanned the entire fracture callus on the diaphysis. Force was applied from the posterior face of the femur with a displacement rate of 0.3 mm/sec. Peak load, yield load, stiffness, displacement post yield, work to fracture, and deformation data were generated. Statistical analysis was performed using a two-way analysis of variance (ANOVA) and a Tukey post-hoc analysis with significance reported at the 95% confidence level. All animal experiments were performed in accordance with protocols approved by Purdue University's Institutional Animal Care and Use Committee (IACUC).
# [3] = 3 weeks, 0.1, 1 and 10 nmol daily s.c.
# [4] = 3 weeks, 0.1, 1 and 10 nmol daily s.c., n=5
# [5] = 2 weeks, 1, 10 and 100 nmol/day
# [6] = 4 weeks, 1, 10 and 100 nmol/day
# [7] = 3 weeks, 1 and 10 nmol daily s.c., n=10
# [8] = 17 days, 0.1, 1 and 10 nmol daily s.c., n=5
# [9] = 3 weeks, 1, 10 and 100 nmol daily s.c., n=5
substance,measurement,setting,value
"P-15_(D)E10: SEQ ID NO: 22, P15 collagen fragment conjugated with 10 glutamic acids (HGTPGPQGIAGQRGVV[dE][dE][dE][dE][dE][dE][dE][dE][dE][dE])",BV/TV,[1]; [3],raises bone density
same,Max load (peak load),[2]; [4],raises bone strength
"Preptin D10: SEQ ID NO: 3, Preptin conjugated with 10 aspartate acids (HDVSTSQAVLPDDFPRYDDDDDDDDDD; Preptin D10)",BV (bone volume),[1]; [5],dose dependent manner
same,BV/TV,[1]; [5],dose dependent manner
same,TbTh,[1]; [5],dose dependent manner
"Ghrelin-D10: SEQ ID NO: 5, Ghrelin D10 with Ser-3 replaced with diaminopropionic acid (HG[Dap]FLSPEHQKAQQRKESKKPPAKLQPRDDDDDDDDDD; ends and bridges not checked)",BV/TV,[1]; [6],dose dependent manner
"CBM D10: SEQ ID NO: 9, collagen binding motif of osteopontin conjugated with 10 aspartate acids",BV/TV,[1]; [3],dose dependent manner
"CNP D10: SEQ ID NO: 7, C-type Natriuretic peptide conjugated with 10 aspartate acids (HDDDDDDDDDDGLSKGCFGLKLDRIGSMSGLGC; disulfide 17-33)",BV/TV,"[1]; 4 weeks, 1 and 10 nmol/day",dose dependent manner
"P4 D10: SEQ ID NO: 10, P4 (knuckle epitope fragment of hBMP-2) conjugated with 10 aspartate acids (HKIPKASSVPTELSAISTLYLDDDDDDDDDD; P4 D10-a BMP2 fragment)",BV (bone volume),"[1]; 4 weeks, 1 nmol/day",healing was reflected
same,BV/TV,"[1]; 4 weeks, 1 and 10 nmol/day",dose dependent manner
"VIP D10: SEQ ID NO: 8, Vasoactive intestinal peptide conjugated with D10 (HHSDAVFTDNYTRLRKQMAVKKYLNSILNDDDDDDDDDD; Vasoactive intestinal peptide with D10 (VIP D10))",BV/TV,"[1]; 4 weeks, 1 nmol/day",healing was reflected as BV/TV
same,TbTh,"[1]; 4 weeks, 1 nmol/day",healing was reflected
"ODP D10: SEQ ID NO: 13, Osteopontin-derived peptide conjugated with 10 aspartate acids (DDDDDDDDDD[mp4″]DVDVPDGRGDSLAYG)",BV/TV,"[1]; 4 weeks, 1 nmol/day",healing was reflected as BV/TV
"CTC_mp4_(D)E10: SEQ ID NO: 21, CTC linked via 4 minipegs to 10 (D) glutamic acids (H[dE][dE][dE][dE][dE][dE][dE][dE][dE][dE][minipeg][minipeg][minipeg][minipeg]IAGVGGEKSGGF)",BV/TV,[1]; [7],raises bone density
same,Max load (peak load),[2]; [7],raises bone strength
same,Work to fracture,[2]; [7],raises bone strength
"IKVAV_mp4_(D)E10: SEQ ID NO: 26, laminin fragment IKVAV conjugated via 4 minipegs with 10 glutamic acids (H[dE][dE][dE][dE][dE][dE][dE][dE][dE][dE][minipeg][minipeg][minipeg][minipeg]GQAASIKVAVSADR)",BV/TV,[1]; [3],raises bone density
same,BV (bone volume),[1]; [4],raises bone mineralization
same,Max load (peak load),[2]; [4],raises bone strength
same,Work to fracture,[2]; [4],raises bone strength
"LN2_P3_mp4_(D)E10: SEQ ID NO: 27, laminin a2 motif DLTIDDSYWYRI with N terminally attached minipeg 4 spacer and targeting ligand (H[dE][dE][dE][dE][dE][dE][dE][dE][dE][dE][mp4″]DLTIDDSYWYRI)",BV (bone volume),[1]; [8],raises bone mineralization
same,BV/TV,[1]; [8],raises bone density
same,Max load (peak load),[2]; [8],raises bone strength
same,Work to fracture,[2]; [8],raises bone strength
"PHSRN_mp4_(D)E10: SEQ ID NO: 28, fibronectin peptide PHSRN with (D)e10 targeting ligand attached to N terminus via minipeg spacer (H[dE][dE][dE][dE][dE][dE][dE][dE][dE][dE][mp4″]PHSRN)",BV (bone volume),[1]; [8],raises bone mineralization
same,BV/TV,[1]; [8],raises bone density
same,Max load (peak load),[2]; [8],raises bone strength
same,Work to fracture,[2]; [8],raises bone strength
"CBD_MP4_(D)E10: SEQ ID NO: 32, 1-28 of osteopontin followed by 4 peg 2 spacers followed by ten d glutamic acids (HNGVFKYRPRYYLYKHAYFYPHLKRFPVQEEEEEEEEEE; 4 PEG2 spacers; D-glutamic acids; CBD _MP4_e10)",BV/TV,[1]; [9],raises bone density
same,Tbth (trabecular thickness),[1]; [9],raises bone quality
same,Work to fracture,[2]; [9],improves bone strength
"MGF D10: SEQ ID NO: 11, Mechano-growth factor with 10 aspartate acids: DDDDDDDDDDYQPPSTNKNTKSQRRKGSTFEEHK (Mechano-growth factor (MGF) D10, an IGF-I fragment)",BV/TV,"[1]; 4 weeks, 1 and 10 nmol/day",dose dependent manner
"pBMP9 D10: SEQ ID NO: 6, peptide from knuckle epitope of human BMP-9 targeted with D10 (CGGKVGKACCVPTKLSPISVLYK[mp4″]DDDDDDDDDD; cysteine pairing not given here)",BV (bone volume),[1]; [6],dose dependent manner
same,BV/TV,[1]; [6],dose dependent manner
"SPARC113_mp4_(D)E10: SEQ ID NO: 30, SPARC residues 113-127 conjugated via 4 minipegs with 10 glutamic acids (H[dE][dE][dE][dE][dE][dE][dE][dE][dE][dE][mp4″]TLEGTKKGHKLHLDY)",BV (bone volume),[1]; [8],raises bone mineralization
same,BV/TV,[1]; [8],raises bone density
same,Max load (peak load),[2]; [8],raises bone strength
same,Work to fracture,[2]; [8],raises bone strength
"substance P D10: SEQ ID NO: 4, substance P with 4 mini PEG linker and conjugated with 10 aspartate acids (DDDDDDDDDDRPKPQQFFGLM; 4 mini PEG linker; substance P 4 mini PEG D10 with; (10)..(11) 4 mini PEG linker)",BV/TV,[1]; [6],dose dependent manner
same,Peak load (max load) of healed femur,"[2]; 4 weeks, printed dose 0×",30-35 Newtons
"OGP-D10: SEQ ID NO: 2, osteogenic growth peptide conjugated with 10 aspartate acids: DDDDDDDDDDALKRQGRTLYGFGG (OGP D10)",BV/TV,"[1]; 2 weeks, 1 and 100 nmol/day",dose dependent manner
same,TbSp,"[1]; 2 weeks, 1 and 100 nmol/day",dose dependent manner
same,TbTh,"[1]; 2 weeks, 1 and 100 nmol/day",dose dependent manner
"CTC_peg10_(D)E10: SEQ ID NO: 20, chemotactic collagen fragment CTC linked via polyethylene glycol 10 to 10 (D) glutamic acids (H[dE][dE][dE][dE][dE][dE][dE][dE][dE][dE][PEG10′]IAGVGGEKSGGF)",BV/TV,[1]; [3],raises bone density
same,Max load (peak load),[2]; [9],improves bone strength
"DGEA_mp4_(D)E10: SEQ ID NO: 24, DGEA with Serine and Proline on C terminus, 4 minipeg spacers and ten d glutamic acids (H[dE][dE][dE][dE][dE][dE][dE][dE][dE][dE][minipeg][minipeg][minipeg][minipeg]DGEASP)",BV (bone volume),[1]; [9],raises bone mineralization
same,BV/TV,[1]; [9],raises bone density
same,Max load (peak load),[2]; [9],raises bone strength
same,Work to fracture,[2]; [9],raises bone strength
"CBM(1-19)_D10: SEQ ID NO: 31, truncated version (1-19) of the collagen binding motif of human osteopontin targeted by D10 (HDDDDDDDDDDGLRSKSKKFRRPDIQYPDA; CBM(1-19)-D10 collagen binding motif)",BV/TV,[1]; [9],raises bone density
same,Tbth (trabecular thickness),[1]; [9],raises bone quality
same,Max load (peak load),[2]; [9],improves bone strength
"BFP-D10: SEQ ID NO: 1, bone forming peptide conjugated with 10 aspartate acids: DDDDDDDDDDGQGFSYPYKAVFSTQ (BFP D10)",BV/TV,[1]; [5],dose dependent manner
same,TbSp,[1]; [5],dose dependent manner
same,Peak load of fractured femurs,"[2]; after 2 weeks, 100 nmol/day (100×), compared to PBS",obtained the maximum peak load
